{
  "source": "paper PMC10822116",
  "about": "(Drug Design, Development and Therapy, 2024)",
  "key": {"BV-2 cells": {"tested_on": "BV-2 cells", "test": "CCK-8 cytotoxicity in BV-2 cells", "format": "cell-based", "settings": "24 h"}, "Kunming mice": {"tested_on": "Kunming mice", "test": "In vivo acute toxicity"}, "[1]": {"tested_on": "mice with scopolamine-induced memory impairment", "test": "Step-down passive avoidance test, scopolamine-induced memory impairment", "format": "in vivo"}, "PC12 cells": {"tested_on": "PC12 cells", "test": "CCK-8 cytotoxicity in PC12 cells", "format": "cell-based", "settings": "24 h"}, "[2]": {"biological_target": "human recombinant BuChE (hBuChE) (Homo sapiens, UniProt P06276)", "sequence (P06276 29-602)": "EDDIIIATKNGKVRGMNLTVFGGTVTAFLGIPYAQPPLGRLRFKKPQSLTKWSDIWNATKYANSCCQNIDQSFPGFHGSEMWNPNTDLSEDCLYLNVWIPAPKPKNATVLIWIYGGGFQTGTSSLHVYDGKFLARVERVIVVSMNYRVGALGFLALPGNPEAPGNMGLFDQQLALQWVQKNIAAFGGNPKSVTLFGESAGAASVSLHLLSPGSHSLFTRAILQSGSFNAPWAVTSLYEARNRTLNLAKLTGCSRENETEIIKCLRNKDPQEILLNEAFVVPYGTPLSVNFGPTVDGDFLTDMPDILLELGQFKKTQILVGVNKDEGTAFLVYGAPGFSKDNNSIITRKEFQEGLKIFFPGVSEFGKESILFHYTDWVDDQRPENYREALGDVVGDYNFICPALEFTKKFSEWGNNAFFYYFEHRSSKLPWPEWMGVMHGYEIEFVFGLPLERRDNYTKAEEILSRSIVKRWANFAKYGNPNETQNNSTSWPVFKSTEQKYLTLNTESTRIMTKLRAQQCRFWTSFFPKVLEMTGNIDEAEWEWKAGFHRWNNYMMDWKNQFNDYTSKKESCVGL", "test": "BuChE inhibition, Ellman spectrophotometry", "format": "biochemical", "settings": "stronger than donepezil"}, "eqBuChE": {"biological_target": "eqBuChE (Equus caballus, UniProt P81908)", "sequence (P81908 whole entry)": "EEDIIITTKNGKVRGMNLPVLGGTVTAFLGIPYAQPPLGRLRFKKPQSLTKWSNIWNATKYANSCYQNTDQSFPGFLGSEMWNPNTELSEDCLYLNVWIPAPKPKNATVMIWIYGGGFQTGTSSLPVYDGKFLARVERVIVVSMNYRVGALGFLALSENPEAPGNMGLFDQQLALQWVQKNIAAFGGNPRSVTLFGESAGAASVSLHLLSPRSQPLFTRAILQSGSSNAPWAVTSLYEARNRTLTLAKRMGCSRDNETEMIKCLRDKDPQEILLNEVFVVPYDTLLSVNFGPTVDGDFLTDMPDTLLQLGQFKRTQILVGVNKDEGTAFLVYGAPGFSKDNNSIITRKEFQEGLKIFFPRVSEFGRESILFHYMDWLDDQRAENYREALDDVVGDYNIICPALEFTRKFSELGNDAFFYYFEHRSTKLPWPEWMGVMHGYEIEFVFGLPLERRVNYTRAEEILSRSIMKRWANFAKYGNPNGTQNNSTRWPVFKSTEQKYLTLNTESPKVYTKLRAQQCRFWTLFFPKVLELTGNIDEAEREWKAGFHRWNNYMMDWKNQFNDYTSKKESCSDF", "test": "BuChE inhibition, Ellman spectrophotometry", "format": "biochemical, equine", "settings": "more potent than donepezil"}, "[3]": {"settings": "7d 5, 10, 20 mg/kg oral, scopolamine 3 mg/kg i.p., dose-dependent"}, "[4]": {"settings": "high-dose 20 mg/kg oral vs donepezil 10 mg/kg"}, "[5]": {"settings": "medium-dose 10 mg/kg oral vs donepezil 10 mg/kg"}},
  "data": [
    {"smiles": "C#CCN(C)CCCCCCOCc1ccc(CN(C)c2c3c(nc4ccccc24)CCCC3)cc1", "note": "[Compound 7d, N-methyl-N-(4-(((6-(methyl(prop-2-yn-1-yl)amino)hexyl)oxy)methyl)benzyl)-1,2,3,4-tetrahydroacridin-9-amine]", "values": [
      {"measurement": "Cytotoxicity", "setting": "BV-2 cells; BV-2, 10 μM", "result": "> 50", "unit": "%"},
      {"measurement": "Effect on cell viability", "setting": "BV-2 cells; BV-2, 0.325 to 2.5 μM", "result": "no significant effect"},
      {"measurement": "Effect on cell viability", "setting": "BV-2 cells; BV-2, above 2.5 μM", "result": "decrease in cell viability"},
      {"measurement": "Death, abnormal behavior or dietary changes", "setting": "Kunming mice; KM mice, oral 625, 1250 and 2500 mg/kg, monitored 4 h", "result": "No such effects were observed"},
      {"measurement": "Average body weight change", "setting": "Kunming mice; KM mice, single oral dose 625, 1250, 2500 mg/kg, 14 days, vs control group", "result": "comparable to that in the control group"},
      {"measurement": "Tissue damage (HE staining of heart, liver, kidney, lung, brain)", "setting": "Kunming mice; mice, 2500 mg/kg oral, day 14", "result": "no obvious signs of tissue damage"},
      {"measurement": "Latency in step-down test", "setting": "[1]; [3]", "result": "prolong the latency"},
      {"measurement": "Number of errors in step-down test", "setting": "[1]; [3]", "result": "reduce the number of errors"},
      {"measurement": "Latency compared with donepezil", "setting": "[1]; [4]", "result": "longer latency"},
      {"measurement": "Number of errors compared with donepezil", "setting": "[1]; [4]", "result": "fewer errors"},
      {"measurement": "Number of errors compared to model group", "setting": "[1]; low-dose 5 mg/kg oral, Kruskal–Wallis test, p = 0.2219", "result": "not statistically significant"},
      {"measurement": "Latency compared with donepezil", "setting": "[1]; [5]", "result": "similar"},
      {"measurement": "Number of errors compared with donepezil", "setting": "[1]; [5]", "result": "similar"},
      {"measurement": "Effect on cell viability", "setting": "PC12 cells; PC12, 0.325 to 2.5 μM", "result": "no significant effect"},
      {"measurement": "Effect on cell viability", "setting": "PC12 cells; PC12, above 2.5 μM", "result": "decrease in cell viability"}
    ]},
    {"smiles": "C#CCN(C)CCCCCCCOc1cccc(CN(C)c2c3c(nc4ccccc24)CCCC3)c1", "note": "[Compound 6f, N-methyl-N-(3-((7-(methyl(prop-2-yn-1-yl)amino)heptyl)oxy)benzyl)-1,2,3,4-tetrahydroacridin-9-amine]", "values": [
      {"measurement": "hBuChE potency relative to donepezil", "setting": "[2]", "result": "approximately 7 fold"}
    ]},
    {"smiles": "C#CCN(C)CCCCCCCOCc1ccc(CN(C)c2c3c(nc4ccccc24)CCCC3)cc1", "note": "[Compound 7e, N-methyl-N-(4-(((7-(methyl(prop-2-yn-1-yl)amino)heptyl)oxy)methyl)benzyl)-1,2,3,4-tetrahydroacridin-9-amine]", "values": [
      {"measurement": "eqBuChE potency relative to donepezil", "setting": "eqBuChE", "result": "approximately 18 fold"}
    ]}
  ]
}
